Here are results for twelve molecules from US20080279897A1, “Method of Treating Cellular Damage” (MEDVET SCIENCE PTY. LTD., priority 2005, published 2008).

Numbering of substitutions follows the chain as printed. In names and notes the source's numbering stands.

The subject of assay [1] is SphK. The assay can be described thus: SphK activity in HUVEC. In kind it is cell-based, human. As to conditions: for effect on SphK activity: 22 mmol/L, osmotic control; for effect on high glucose-induced increases in SphK activity: PD98059 10 μM, U0126 2 μM. How it is done: Human umbilical vein EC (HUVEC) and bovine aortic EC (BAEC) were routinely cultured in this laboratory as previously described ([…] et al., 2004, Circ. Res. 94:1515-1522). In all experiments EC ranging from passage 2-6 were used. For the experimental studies, EC were allowed to reach confluence in the regular growth media. Medium was then changed to (i) EBM (Clonetics, Walkersville, Md.) containing 1% FCS and 5.5 mM glucose (normal glucose, NG); (ii) NG medium supplemented with additional glucose to final concentration of 22 mM (high glucose); or (iii) NG medium containing 16.5 mM L-glucose or mannitol that served as an osmotic control for the high glucose medium. As described previously (Xia et al., 1999, J. Biol. […] The formation of S1P in vivo was measured in the permeabilized cells as previously described (Xia et al., 1998, Proc. Natl. Acad. Sci. U.S.A 95:14196-14201).

The subject of assay [2] is PKC. In words: PKC activity assay in situ in HUVEC. As to conditions: 2.5 μmol/L, high glucose. In kind it is cell-based, human. As to the method: PKC activity was measured in situ as described previously (Xia et al., 1996, J. Clin. Invest 98:2018-2026). Briefly, cells were seeded in 24-well plates and exposed to NG or HG for 3 days. After the indicated treatments, total PKC activity was then determined in permeabilized cells in the presence of 10 μM [γ^32P]ATP (5000 cpm/pmol) and the PKC-specific peptide substrate (RKRTLRRL, 200 μM). The activity was then quantified by scintillation counting and normalized to total protein levels.

For assay [3], the system named is VCAM-1. In words: Cell surface VCAM-1 expression in HUVEC by flow cytometry. In kind it is cell-based, human. How it is done: (§1) Human umbilical vein EC (HUVEC) and bovine aortic EC (BAEC) were routinely cultured in this laboratory as previously described (Verrier et al., 2004, Circ. Res. 94:1515-1522). In all experiments EC ranging from passage 2-6 were used. For the experimental studies, EC were allowed to reach confluence in the regular growth media. Medium was then changed to (i) EBM (Clonetics, Walkersville, Md.) containing 1% FCS and 5.5 mM glucose (normal glucose, NG); (ii) NG medium supplemented with additional glucose to final concentration of 22 mM (high glucose); or (iii) NG medium containing 16.5 mM L-glucose or mannitol that served as an osmotic control for the high glucose medium.
(§2) After the indicated treatment, HUVECs were incubated with primary monoclonal antibodies to VCAM-1, ICAM-1 and E-selectin or an isotype-matched non-relevant antibody for 30 min. Cells were then incubated with FITC-conjugated secondary antibody and fixed in 2.5% formaldehyde. The expression of cell-surface adhesion molecules was measured as fluorescence intensity by use of a Coulter Epics Profile XL flow cytometer, as described previously (Verrier et al., 2004, supra).

The subject of assay [4] is ICAM-1. In words: Cell surface ICAM-1 expression in HUVEC by flow cytometry. Format: cell-based, human. How it is done: as §1, §2
A general note: Flow cytometry measures light scatter and fluorescence of single cells or particles in a stream.

Assay [5] relates to E-selectin. In words: Cell surface E-selectin expression in HUVEC by flow cytometry. Format: cell-based, human. As to conditions: for effect on E-selectin expression: 5 μM for 6 hrs. How it is done:
as §1, §2

The test system of assay [6] is NF-κB. The assay can be described thus: NF-κB electrophoretic mobility shift assay in HUVEC. In kind it is cell-based, human. As to conditions: 2.5 μM, gel shift. How it is done: (§3) Nuclear extracts were prepared from EC exposed to NG or HG with or without the indicated treatment. The double-stranded oligonucleotides used as probes in the experiments included 5′-[…]-3′ (SEQ ID NO: 1) which contains a consensus NF-κB binding site in E-selectin promoter (underlined). Gel mobility shift of a consensus NF-κB oligonucleotide was performed by incubating a ^32P-labelled NF-κB probe with 4 μg of nuclear proteins as described previously (Xia et al., 1998, supra).
(Mobility shift assays separate free from complexed probe on a gel.)

Assay [7] has as its system SphK. The assay can be described thus: SphK activity in BAEC (parental or transfected). In kind it is cell-based, bovine. As to conditions: for effect on SphK activity: BAEC, 22 mmol/L, osmotic control. How it is done:
as §1
(§4) FLAG-tagged human wild-type SphK1 cDNA and the dominant negative SphK1^G82D were sub-cloned into pcDNA3 plasmids (Invitrogen, Melbourne, Australia) as previous described (Pitson et al., 2000, J. Biol. Chem. 275:33945-33950). Lipofectamine 2000 (Invitrogen) mediated transfection was performed in BAEC according to the manufacturer's protocols. For stable expression, the transfectants were selected in medium containing 800 μg/ml G418 (Invitrogen). The resulting non-clonal pools of G418-resistant transfected cells were then collected and used to avoid clonal variability. The expression of FLAG-tagged transgenes was determined by Westernblot assay with the antibodies against FLAG (M2, Sigma, Clayton, Australia).
(§5) As described previously (Xia et al., 1999, J. Biol. Chem. 274:34499-34505), SphK activity was routinely determined using D-erythro-sphingosine (Biomol, Plymouth Meeting, Pa.) and [γ^32P]ATP (Geneworks, Adelaide, Australia) as substrates, and defined as picomoles of S1P formed per min per mg protein. The formation of S1P in vivo was measured in the permeabilized cells as previously described (Xia et al., 1998, Proc. Natl. Acad. Sci. U.S.A 95:14196-14201).

The subject of assay [8] is S1P formation. In words: S1P formation in endothelial cells. Format: cell-based, human. As to conditions: 22 mmol/L. As to the method:
as §1, §5

The test system of assay [9] is U937 cells adhering to HUVEC. The assay can be described thus: Adherence of U937 cells to HUVEC. In kind it is cell-based, human. As to conditions: 50 ng/ml. How it is done:
(§6) U937 cells (CRL 1593.2; ATCC) were grown in RPMI-1640 medium (GIBCO BRL) containing 10% FCS, collected by low-speed centrifugation and resuspended at a density of 2×10^5 cells/ml in medium without FCS. EC were seeded into 24-well plates and cultured with NG or HG medium for 3 days after confluence. After washing twice with warm RPMI-1640 medium, the U937 cell suspension (100 μl/well) was added and incubated for 30 minutes at 37° C. Non-adherent cells were removed by rinsing the plates three times with PBS, and the number of adherent cells was then counted under microscopy with at least 6 fields per well culture being quantified.

For assay [10], the system named is U937 cells adhering to BAEC. The assay can be described thus: Adherence of U937 cells to transfected BAEC. As to conditions: stably transfected BAEC, 22 mM glucose 3 days. In kind it is cell-based, bovine. As to the method:
as §4, §6

The test system of assay [11] is NF-κB. In words: NF-κB electrophoretic mobility shift assay in BAEC. Format: cell-based, bovine. As to conditions: gel shift. How it is done:
as §4, §3

Where [12] appears, read: 2.5 μmol/L, 3 days high glucose.

On to `CCCCCCCCCCCCC/C=C/[C@@H](O)[C@H](CO)N(C)C` [DMS, N′N′-dimethylsphingosine], for which the “inhibition of high glucose-induced SphK activity” value in [1] (2.5 μmol/L) is listed as “capable of inhibiting”. For the same molecule, the “inhibitory effect on PKC activity” value in assay [2] is recorded as “no inhibitory effect”. Moreover, the “effect on high glucose-induced increase in VCAM-1 expression” value in assay [3] (setting [12]) is given as “completely abolished”. Further, the “effect on high glucose-induced increase in ICAM-1 expression” value in assay [4] (setting [12]) is on record as “completely abolished”. Further, the “effect on high glucose-induced increase in E-selectin expression” value in assay [5] (setting [12]) is listed as “completely abolished”. Also, the “effect on high glucose-induced NF-κB activation” value in assay [6] was “completely inhibited”.

For `CN(C)CCCn1cc(C2=C(c3c[nH]c4ccccc34)C(=O)NC2=O)c2ccccc21` [GF109203X], the “attenuation of high glucose-induced increases in SphK activity” value in assay [1] (5 μM, 30 min) was about 50%.

With `O=C[C@@H](O)[C@H](O)[C@@H](O)[C@@H](O)CO` [L-glucose], the “effect on SphK activity” value in [1] and in assay [7] was “neither mannitol nor L-glucose at 22 mmol/L had any significant effects” in each case. Also, the “effect on S1P production” value in assay [8] is given as “fails to activate sphingosine kinase or effect S1P production”.

For `COc1cccc(-c2cc(=O)c3ccccc3o2)c1N` [PD98059], the “effect on high glucose-induced increases in SphK activity” value in assay [1] (30 min) is given as “completely prevented”.

In the case of `CCCCCCCCCCCCC/C=C/[C@@H](O)[C@@H](N)COP(=O)(O)O` [S1P, sphingosine-1-phosphate], the “effect on E-selectin expression” value in assay [5] is listed as “significant increase”.

In the case of `N#CC(=C(/N)Sc1ccccc1N)/C(C#N)=C(\N)Sc1ccccc1N` [U0126], in assay [1] (30 min), the “effect on high glucose-induced increases in SphK activity” value was “completely prevented”.

For `CCCCCCCCCCCCCCC[C@@H](O)[C@@H](N)COP(=O)(O)O` [dihydro-S1P, sphinganine-1-phosphate], the “effect on E-selectin expression” value in assay [5] is “no significant effect”.

`OC[C@@H](O)[C@@H](O)[C@H](O)[C@H](O)CO` [mannitol]: the “effect on SphK activity” value in [1] and in assay [7] was “neither mannitol nor L-glucose at 22 mmol/L had any significant effects” in each case. Further, the “effect on S1P production” value in [8] is “fails to activate sphingosine kinase or effect S1P production”.

Regarding lysophosphatidic acid [LPA], the “effect on E-selectin expression” value in assay [5] was “significant increase”.

Turning to pertussis toxin, the “inhibition of high glucose-induced expression of VCAM-1” value in assay [3] (50 ng/ml, vs untreated cells) turned out to be 30%. In addition, the “inhibition of high glucose-induced expression of ICAM-1” value in assay [4] (50 ng/ml, vs untreated cells) is 42%. For the same molecule, the “inhibition of high glucose-induced expression of E-selectin” value in assay [5] (50 ng/ml, vs untreated cells) is reported as 35%. Further, in assay [5] (5 μM LPA 6 hrs, PTX 50 ng/ml), the “inhibition of LPA-induced E-selectin expression” value was “completely inhibited”. In addition, the “inhibition of S1P-induced E-selectin expression” value in [5] (5 μM S1P 6 hrs, PTX 50 ng/ml) was determined as 32%. The “number of leukocytes adhering to high glucose-stimulated EC” value in [9] is given as “partially, but significantly, reduced”.

B1: SphK^WT: FLAG-tagged wild-type human SphK1 stably overexpressed in BAEC by transfection (protein, UniProt Q9NYA1 1-384, looked up)
Sphingosine kinase 1: MDPAGGPRGVLPRPCRVLVLLNPRGGKGKALQLFRSHVQPLLAEAEISFTLMLTERRNHARELVRSEELGRWDALVVMSGDGLMHEVVNGLMERPDWETAIQKPLCSLPAGSGNALAASLNHYAGYEQVTNEDLLTNCTLLLCRRLLSPMNLLSLHTASGLRLFSVLSLAWGFIADVDLESEKYRRLGEMRFTLGTFLRLAALRTYRGRLAYLPVGRVGSKTPASPVVVQQGPVDAHLVPLEEPVPSHWTVVPDEDFVLVLALLHSHLGSEMFAAPMGRCAAGVMHLFYVRAGVSRAMLLRLFLAMEKGRHMEYECPYLVYVPVVAFRLEPKDGKGVFAVDGELMVSEAVQGQVHPNYFWMVSGCVEPPPSWKPQQMPPPEEPL
modifications: FLAG tag
notes: FLAG-tagged wild-type human SphK1 stably overexpressed in BAEC by transfection
With B1, the “basal level of SphK activity, higher than control cells” value in assay [7] (stably transfected BAEC) came to 10 fold. Moreover, in [10], the “number of leukocytes adhering to high glucose-stimulated BAEC” value is “markedly enhanced”.

B2: SphK^G82D: point mutation of human SphK1, dominant-negative mutant, stably expressed in BAEC by transfection (protein, UniProt Q9NYA1 1-384, looked up, variant G82D)
Sphingosine kinase 1: B1 Sphingosine kinase 1 with G82D
For the molecule B2, the “SphK activation under high glucose conditions” value in [7] (BAEC expressing the mutant, 22 mM glucose 3 days) is given as “no SphK activation”. Moreover, in assay [10], the “number of leukocytes adhering to high glucose-stimulated BAEC” value is “profoundly attenuated”. For the same molecule, in assay [11], the “high glucose-induced NF-κB activation in cells expressing the mutant” value is on record as “incapable of activating NF-κB”.
